Measured values reported in US20200079757A1, “COMPOUNDS FOR THE TREATMENT OF RESPIRATORY DISEASES” (THE UNIVERSITY OF MELBOURNE, priority 2017, published 2020).
Read-outs that look alike come from different tables or passages of the source.

Experiments:
[1] = system: Col 1A gene expression in BEAS-2B cells; assay: TNFα and TGFβ induced Col 1A gene expression in BEAS-2B cells (RT-qPCR); format: cell-based
Experimental: The primary assay for the activity of the novel CK1δ/ε inhibitors is the modulation of gene expression in the airway epithelial cell line, the BEAS-2B cells. The assay is conducted under several conditions. Generally, TGF-β or TNF-α is used to elicit fibrogenic or inflammatory genes, respectively. The agents are added at a concentration of 10 μM, or at the indicated concentrations for a period of 30 min prior to the addition of TGF-β/TNF-α which are incubated for a further 20 hours before the addition, in some experiments of the glucocorticoid, dexamethasone (Dex, 30 nM) for the final 4 hours of the experiment, prior to harvest of cellular RNA to measure by RT-qPCR the levels of mRNA of marker genes for inflammation and fibrogenesis. The inhaled corticosteroid (ICS), budesonide is also used in some experiments. Furthermore, the supernatants are harvested at the end of the incubation periods in selected experiments to measure the levels of CSF-2 or IL-8 by ELISA as described in (Tran et al. (2005) British Journal of Pharmacology, 145, 123-131).
(§1) Prior to experimentation, BEAS-2B and A549 cells were incubated in serum-free DMEM containing 0.25% bovine serum albumin (BSA) and insulin-transferrin-selenium—containing supplement (Monomed A; CSL, Parkville, Melbourne, Australia). Where indicated, cells were treated with one of the series of synthesised compounds (0.3-10 μM) prior to exposure to 100 pM TGF-β1 (R&D Systems, Minneapolis, Minn.) or 300 pM bFGF (Promega, Madison, Wis.).
(§2) Total RNA was extracted from cultured cells using illustra RNAspin Mini RNA Isolation Kit (GE Healthcare). RNA extracts were reverse-transcribed into cDNA using High-Capacity RNA-to-cDNA Kit (Applied Biosystems). Real-time PCR was then performed using a QuantStudio 6 Flex Real-Time PCR System using iTaq Universal SYBR green supermix and the following thermal protocol: 50° C. (2 min), 95° C. (10 min), then 40 cycles of 95° C. (15 sec), 60° C. (1 min). The threshold cycle (CT) values determined for target genes were normalized against those obtained for 18S ribosomal RNA (18S rRNA), which was included as internal control. The generation of specific PCR products was confirmed by dissociation curve analysis.

liver gene expression = assay: Liver fibrogenic gene expression after oral (gavage) dosing in bleomycin-treated mice; format: in vivo, mouse; details: female C57BL6 mice, 30 mg/kg po once daily day −1 to 3, 3 days after transnasal bleomycin
Experimental: FIG. 11. The effects of oral (gavage) PF670462 or […] were investigated in female C57BL6 mice, with a focus on liver gene expression. […] Data are presented as mean±SEM (n=4). In studies to ascertain the effect of oral administration of either PF670462 or SS8-058 we harvested the liver on day 3 from mice that had been treated transnasally with bleomycin on day 0 to measure gene expression of products that are implicated in fibrogenesis. Mice were treated once daily by gavage from day −1 to day 3 with either PF670462 or SS8-058 (30 mg/kg, po).

TGFβ-activated A549 = TGFβ-activated A549 gene expression (modulation of mRNA level, RT-qPCR); format: cell-based; details: for IC50: Homo sapiens, A549, agent 0.1-10 μM before TGF-β (100 pM) 24 hr
Experimental: The selected potential candidate was also assayed in A549 alveolar epithelial cells, a commonly-used cell model for epithelial-mesenchymal transition (EMT) investigation. The agents were added at the indicated concentrations 30 min prior to the addition of TGF-β which was incubated for a further 24 hours. Then, the cellular RNA was harvested to measure the regulation of the EMT-associated genes and fibrogenic genes.
A549 alveolar epithelial cells (ATCC, Manasas, Va., USA) were cultured in DMEM containing 5% (v/v) FCS, 15 mM HEPES, 0.2% (v/v) sodium bicarbonate, 2 mM L-glutamine, 1% (v/v) non-essential amino acids, 1% (v/v) sodium pyruvate, 5 IU/mL penicillin and 50 μg/mL streptomycin as previously described (S. Salem, T. Harris, J. Mok Shiueh Lian, M. Yuen Sin Li, C. R. Keenan, M. J. Schuliga, and A. G. Stewart (2012). Transforming growth factor-p impairs glucocorticoid activity in the A549 lung adenocarcinoma cell line. Br J Pharmacol. 166: 2036-2048).
as §1, §2
EMT is a feature of the pathogenesis of fibrosis that is relevant to epithelial tumour metastases and fibrogenesis in organs such as heart, kidney liver and lung, and is known to contribute to idiopathic pulmonary fibrosis (IPF) as well as being thought to make a contribution to the fibrosis known to occur in asthma and COPD. […] The potencies of PF670462 and SS9-010 in modulating induction of CTGF are not statistically distinguishable. […] The potency of these two agents in regulating vimentin induction by TGF-β could not be assessed, as the concentration-response relationship for PF670462 could not be fitted. However, the effects of SS9-010 were significant at 3 μM, whereas PF670462 (3 μM) had no effect.

[2] = read-out: -Log IC50 ± SEM (modulation of mRNA level), CTGF induction (converted)
[3] = read-out: -Log IC50 ± SEM (modulation of mRNA level), Col 1A induction (converted)
[4] = read-out: -Log IC50 ± SEM (modulation of mRNA level), E-Cadherin repression (converted)
[5] = read-out: -Log IC50 ± SEM (modulation of mRNA level), PAI-1 induction (converted)

Cl.Nc1nccc(-c2c(-c3ccc(F)cc3)ncn2C2CCCCC2)n1 [PF670462, 4-(1-Cyclohexyl-4-(4-fluorophenyl)-1H-imidazol-5-yl)pyrimidin-2-amine hydrochloride, reference compound]
Col1A mRNA level, TGF-β ([1]; agent 3 μM): 1.91 ± 0.32 fold control
Col1A mRNA level, TNF-α (n = 2) ([1]; agent 3 μM): 0.52 fold control
Col1A mRNA level, vehicle (no stimulus) ([1]; agent 3 μM): 0.47 ± .04 fold control
Col1A mRNA level, TGF-β ([1]; agent 10 μM): 1.53 ± 0.33 fold control
Col1A mRNA level, TNF-α (n = 2) ([1]; agent 10 μM): 0.65 fold control
Col1A mRNA level, vehicle (no stimulus) ([1]; agent 10 μM): 0.65 ± 0.02 fold control
liver baseline mRNA level of PAI-1 (liver gene expression): significant reductions
liver baseline mRNA level of TMP1 (liver gene expression): significant reductions
effect on vimentin induction by TGF-β (TGFβ-activated A549; A549, agent 3 μM): no effect
IC50 (TGFβ-activated A549; [2]): 1450 nM
IC50 (TGFβ-activated A549; [3]): 3800 nM
IC50 (TGFβ-activated A549; [4]): 8320 nM
IC50 (TGFβ-activated A549; [5]): 3890 nM

CCCCCCCCN1CCC(n2cnc(-c3ccc(F)cc3)c2-c2ccnc(N)n2)CC1 [SS8-058, 4-(4-(4-Fluorophenyl)-1-[1-octylpiperidin-4-yl]-1H-imidazol-5-yl)pyrimidin-2-amine]
Col1A mRNA level, TGF-β ([1]; agent 10 μM): 9.68 ± 1.25 fold control
Col1A mRNA level, TNF-α (n = 2) ([1]; agent 10 μM): 1.11 fold control
Col1A mRNA level, vehicle (no stimulus) ([1]; agent 10 μM): 0.91 ± 0.19 fold control
liver baseline mRNA level of PAI-1 (liver gene expression): significant reductions
liver baseline mRNA level of TMP1 (liver gene expression): significant reductions

CNc1nccc(-c2c(-c3ccc(F)cc3)ncn2C2CCCCC2)n1 [SS9-010, 4-(1-Cyclohexyl-4-(4-fluorophenyl)-1H-imidazol-5-yl)-N-methylpyrimidin-2-amine]
Col1A mRNA level, TGF-β ([1]; agent 10 μM): 1.09 ± 0.10 fold control
Col1A mRNA level, TNF-α (n = 2) ([1]; agent 10 μM): 0.37 fold control
Col1A mRNA level, vehicle (no stimulus) ([1]; agent 10 μM): 0.30 ± 0.02 fold control
IC50 (TGFβ-activated A549; [2]): 447 nM
IC50 (TGFβ-activated A549; [3]): 447 nM
IC50 (TGFβ-activated A549; [4]): 2140 nM
IC50 (TGFβ-activated A549; [5]): 661 nM
IC50 (TGFβ-activated A549; read-out: -Log IC50 ± SEM (modulation of mRNA level), Vimentin induction (converted)): 3890 nM
